Assays:
Assay in all cases: KINOMEscan competition binding
Details in all cases: compound 10.0 µM
[1] = target: FLT4 (human) (UniProt P35916)
[2] = target: CAMK2B (human) (UniProt Q13554)
[3] = target: CDK11B (human) (UniProt P21127)
[4] = target: CHEK1 (human) (UniProt O14757)
[5] = target: PAK2 (human) (UniProt Q13177)
[6] = target: CDK17 (human) (UniProt Q00537)
[7] = target: NEK5 (human) (UniProt Q6P3R8)
[8] = target: MAPK14 (human) (UniProt Q16539)
[9] = target: SIK3 (human) (UniProt Q9Y2K2)
[10] = target: RPS6KA3 KD1 (human) (UniProt P51812)
[11] = target: HIPK2 (human) (UniProt Q9H2X6)
[12] = target: PIP5K1A (human) (UniProt Q99755)
[13] = target: ACVR1 (human) (UniProt Q04771)
[14] = system: EGFR (human), P00533 [A750P; 747-749 del]
[15] = target: EPHB2 (human) (UniProt P29323)
[16] = target: MAPKAPK5 (human) (UniProt Q8IW41)
[17] = target: SIK2 (human) (UniProt Q9H0K1)
[18] = target: TEC (human) (UniProt P42680)
[19] = target: PRKD3 (human) (UniProt O94806)
[20] = target: PRKCE (human) (UniProt Q02156)
[21] = target: ROCK1 (human) (UniProt Q13464)
[22] = target: INSR (human) (UniProt P06213)
[23] = target: STK39 (human) (UniProt Q9UEW8)
[24] = system: PIK3CA (human), P42336 [M1043I]
[25] = target: MAP3K7 (human) (UniProt O43318)
[26] = target: MAP3K9 (human) (UniProt P80192)
[27] = target: CDK5 (human) (UniProt Q00535)
[28] = target: MATK (human) (UniProt P42679)
[29] = target: AKT2 (human) (UniProt P31751)
[30] = target: LIMK2 (human) (UniProt P53671)
[31] = target: RET (human) (UniProt P07949)
[32] = target: LATS1 (human) (UniProt O95835)
[33] = target: ADCK3 (human) (UniProt Q8NI60)
[34] = target: CAMK1G (human) (UniProt Q96NX5)

ADCK3 (human), sequence (Q8NI60 whole entry, looked up): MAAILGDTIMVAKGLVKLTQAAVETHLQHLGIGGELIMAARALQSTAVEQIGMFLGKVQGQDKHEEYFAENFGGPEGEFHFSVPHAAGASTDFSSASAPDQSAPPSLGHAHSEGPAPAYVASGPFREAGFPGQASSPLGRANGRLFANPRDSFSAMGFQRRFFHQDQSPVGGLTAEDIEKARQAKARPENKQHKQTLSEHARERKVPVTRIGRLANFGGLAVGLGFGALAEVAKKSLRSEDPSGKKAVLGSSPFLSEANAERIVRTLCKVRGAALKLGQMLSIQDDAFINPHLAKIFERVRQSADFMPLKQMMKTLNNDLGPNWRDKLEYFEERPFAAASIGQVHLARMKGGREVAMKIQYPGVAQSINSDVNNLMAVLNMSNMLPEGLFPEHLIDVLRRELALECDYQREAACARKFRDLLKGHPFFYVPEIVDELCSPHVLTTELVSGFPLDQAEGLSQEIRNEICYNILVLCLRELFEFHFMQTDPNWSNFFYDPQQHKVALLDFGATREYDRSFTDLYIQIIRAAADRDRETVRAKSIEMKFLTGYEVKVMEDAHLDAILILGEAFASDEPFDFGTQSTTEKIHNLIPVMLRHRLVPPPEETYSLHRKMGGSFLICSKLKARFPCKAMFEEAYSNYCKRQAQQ
CAMK2B (human), sequence (Q13554 whole entry, looked up): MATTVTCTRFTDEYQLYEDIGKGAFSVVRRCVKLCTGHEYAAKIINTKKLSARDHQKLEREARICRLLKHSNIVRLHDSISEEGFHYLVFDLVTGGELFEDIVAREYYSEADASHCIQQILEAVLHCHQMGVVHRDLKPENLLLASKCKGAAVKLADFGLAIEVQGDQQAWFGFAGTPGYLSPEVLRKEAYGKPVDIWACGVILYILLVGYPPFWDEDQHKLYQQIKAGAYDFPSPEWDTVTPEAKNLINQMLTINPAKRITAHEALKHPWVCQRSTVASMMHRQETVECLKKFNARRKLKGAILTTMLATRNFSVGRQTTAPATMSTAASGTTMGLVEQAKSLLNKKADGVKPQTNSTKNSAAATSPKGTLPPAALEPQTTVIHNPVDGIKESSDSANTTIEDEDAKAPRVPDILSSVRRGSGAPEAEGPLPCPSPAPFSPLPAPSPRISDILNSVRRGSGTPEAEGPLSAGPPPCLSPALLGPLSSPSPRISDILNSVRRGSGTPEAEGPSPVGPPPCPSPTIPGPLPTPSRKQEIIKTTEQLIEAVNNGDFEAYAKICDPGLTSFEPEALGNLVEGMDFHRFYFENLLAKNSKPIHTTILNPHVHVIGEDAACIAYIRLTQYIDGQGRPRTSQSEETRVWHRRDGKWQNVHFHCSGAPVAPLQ
INSR (human), sequence (P06213 whole entry, looked up): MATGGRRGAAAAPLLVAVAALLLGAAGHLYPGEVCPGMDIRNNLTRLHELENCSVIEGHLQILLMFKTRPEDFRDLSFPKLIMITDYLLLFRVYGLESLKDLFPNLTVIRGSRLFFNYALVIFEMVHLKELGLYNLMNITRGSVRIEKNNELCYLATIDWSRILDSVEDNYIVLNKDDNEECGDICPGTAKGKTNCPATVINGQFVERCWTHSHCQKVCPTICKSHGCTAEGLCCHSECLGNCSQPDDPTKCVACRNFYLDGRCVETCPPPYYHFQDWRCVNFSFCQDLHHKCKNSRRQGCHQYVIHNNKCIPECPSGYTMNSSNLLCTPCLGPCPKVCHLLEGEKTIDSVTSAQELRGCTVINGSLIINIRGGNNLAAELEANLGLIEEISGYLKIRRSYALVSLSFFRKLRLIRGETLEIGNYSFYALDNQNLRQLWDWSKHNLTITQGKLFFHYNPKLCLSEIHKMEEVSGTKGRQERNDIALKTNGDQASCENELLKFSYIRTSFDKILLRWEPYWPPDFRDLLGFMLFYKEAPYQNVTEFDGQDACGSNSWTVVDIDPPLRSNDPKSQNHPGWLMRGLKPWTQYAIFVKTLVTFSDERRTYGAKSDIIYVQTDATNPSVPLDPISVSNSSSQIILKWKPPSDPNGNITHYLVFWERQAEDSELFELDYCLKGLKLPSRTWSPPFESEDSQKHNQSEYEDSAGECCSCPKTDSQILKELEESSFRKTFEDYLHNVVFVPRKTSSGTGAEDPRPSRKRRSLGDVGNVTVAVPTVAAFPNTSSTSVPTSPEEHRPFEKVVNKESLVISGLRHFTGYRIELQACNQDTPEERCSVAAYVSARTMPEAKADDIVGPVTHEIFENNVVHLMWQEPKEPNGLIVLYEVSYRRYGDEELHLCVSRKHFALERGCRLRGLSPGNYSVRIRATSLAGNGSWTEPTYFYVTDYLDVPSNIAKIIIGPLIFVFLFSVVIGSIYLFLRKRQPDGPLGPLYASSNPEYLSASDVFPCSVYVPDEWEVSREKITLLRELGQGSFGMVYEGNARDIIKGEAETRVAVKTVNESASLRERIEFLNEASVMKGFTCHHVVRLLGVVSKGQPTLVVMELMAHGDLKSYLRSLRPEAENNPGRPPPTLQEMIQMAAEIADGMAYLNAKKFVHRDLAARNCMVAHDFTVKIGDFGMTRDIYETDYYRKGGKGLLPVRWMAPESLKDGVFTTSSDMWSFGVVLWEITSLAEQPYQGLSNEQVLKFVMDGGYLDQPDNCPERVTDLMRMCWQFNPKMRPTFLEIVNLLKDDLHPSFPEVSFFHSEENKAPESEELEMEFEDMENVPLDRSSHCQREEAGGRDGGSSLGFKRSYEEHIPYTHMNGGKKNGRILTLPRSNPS
CDK5 (human), sequence (Q00535 whole entry, looked up): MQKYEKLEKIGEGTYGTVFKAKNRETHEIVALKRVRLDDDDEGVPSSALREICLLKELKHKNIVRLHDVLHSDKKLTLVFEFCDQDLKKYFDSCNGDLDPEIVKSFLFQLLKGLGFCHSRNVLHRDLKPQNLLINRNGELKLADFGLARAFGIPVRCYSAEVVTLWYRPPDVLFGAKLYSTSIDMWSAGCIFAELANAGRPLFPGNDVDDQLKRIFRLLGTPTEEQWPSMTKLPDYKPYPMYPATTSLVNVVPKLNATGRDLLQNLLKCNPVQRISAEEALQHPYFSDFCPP
PIP5K1A (human), sequence (Q99755 whole entry, looked up): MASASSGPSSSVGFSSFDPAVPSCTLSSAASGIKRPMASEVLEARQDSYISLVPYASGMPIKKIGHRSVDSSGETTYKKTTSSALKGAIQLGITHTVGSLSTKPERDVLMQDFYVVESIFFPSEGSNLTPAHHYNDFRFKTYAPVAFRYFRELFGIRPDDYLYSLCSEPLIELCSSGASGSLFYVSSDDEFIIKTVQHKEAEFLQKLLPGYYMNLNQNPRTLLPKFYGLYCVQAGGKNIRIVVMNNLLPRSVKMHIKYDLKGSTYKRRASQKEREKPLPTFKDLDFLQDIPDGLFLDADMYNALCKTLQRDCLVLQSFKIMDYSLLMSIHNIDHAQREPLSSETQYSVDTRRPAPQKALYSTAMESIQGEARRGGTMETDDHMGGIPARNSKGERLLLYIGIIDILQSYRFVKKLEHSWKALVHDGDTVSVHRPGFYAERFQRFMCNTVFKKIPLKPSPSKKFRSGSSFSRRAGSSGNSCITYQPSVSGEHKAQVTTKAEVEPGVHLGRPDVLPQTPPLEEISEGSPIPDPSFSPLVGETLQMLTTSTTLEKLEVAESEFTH
TEC (human), sequence (P42680 whole entry, looked up): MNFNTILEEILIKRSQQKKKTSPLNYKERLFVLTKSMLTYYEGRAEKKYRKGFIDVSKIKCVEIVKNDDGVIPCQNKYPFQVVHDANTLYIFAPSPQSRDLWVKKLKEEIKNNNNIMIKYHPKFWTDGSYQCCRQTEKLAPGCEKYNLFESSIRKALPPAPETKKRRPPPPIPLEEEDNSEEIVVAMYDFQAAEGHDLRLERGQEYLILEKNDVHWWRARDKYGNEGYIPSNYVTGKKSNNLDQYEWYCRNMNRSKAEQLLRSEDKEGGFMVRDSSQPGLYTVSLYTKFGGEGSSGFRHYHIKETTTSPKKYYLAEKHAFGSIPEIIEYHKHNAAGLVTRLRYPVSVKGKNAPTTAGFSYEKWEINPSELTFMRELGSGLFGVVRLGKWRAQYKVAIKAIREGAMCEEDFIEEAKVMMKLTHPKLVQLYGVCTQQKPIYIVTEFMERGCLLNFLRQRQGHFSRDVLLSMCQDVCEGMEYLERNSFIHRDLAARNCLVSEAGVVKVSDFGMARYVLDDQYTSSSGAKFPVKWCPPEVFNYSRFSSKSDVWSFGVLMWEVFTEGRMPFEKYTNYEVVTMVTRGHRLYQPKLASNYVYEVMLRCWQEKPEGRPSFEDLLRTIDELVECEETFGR
CDK11B (human), sequence (P21127 whole entry, looked up): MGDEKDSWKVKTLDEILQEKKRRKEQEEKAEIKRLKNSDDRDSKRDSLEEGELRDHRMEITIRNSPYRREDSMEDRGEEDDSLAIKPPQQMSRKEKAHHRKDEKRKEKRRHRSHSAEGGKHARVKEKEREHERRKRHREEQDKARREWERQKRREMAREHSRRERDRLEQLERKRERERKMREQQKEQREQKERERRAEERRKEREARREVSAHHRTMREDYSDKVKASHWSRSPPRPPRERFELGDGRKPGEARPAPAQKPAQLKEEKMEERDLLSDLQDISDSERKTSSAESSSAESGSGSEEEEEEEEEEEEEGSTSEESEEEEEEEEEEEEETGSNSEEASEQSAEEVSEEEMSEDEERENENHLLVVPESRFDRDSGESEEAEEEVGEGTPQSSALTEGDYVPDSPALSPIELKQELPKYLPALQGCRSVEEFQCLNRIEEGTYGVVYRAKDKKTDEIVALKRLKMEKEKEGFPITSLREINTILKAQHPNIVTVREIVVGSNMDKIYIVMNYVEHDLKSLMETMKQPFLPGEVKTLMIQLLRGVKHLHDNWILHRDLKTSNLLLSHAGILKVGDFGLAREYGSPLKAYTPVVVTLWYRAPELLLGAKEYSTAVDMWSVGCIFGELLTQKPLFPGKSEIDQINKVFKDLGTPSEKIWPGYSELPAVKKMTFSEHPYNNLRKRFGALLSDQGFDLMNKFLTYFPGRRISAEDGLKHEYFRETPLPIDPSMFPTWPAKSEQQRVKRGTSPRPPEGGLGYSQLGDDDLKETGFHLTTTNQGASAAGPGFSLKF

SMILES	kinase still bound, per cent of control [1]	kinase still bound, per cent of control [2]	kinase still bound, per cent of control [3]	kinase still bound, per cent of control [4]	kinase still bound, per cent of control [5]	kinase still bound, per cent of control [6]	kinase still bound, per cent of control [7]	kinase still bound, per cent of control [8]	kinase still bound, per cent of control [10]	kinase still bound, per cent of control [12]	kinase still bound, per cent of control [13]	kinase still bound, per cent of control [14]	kinase still bound, per cent of control [15]	kinase still bound, per cent of control [16]	kinase still bound, per cent of control [17]	kinase still bound, per cent of control [18]	kinase still bound, per cent of control [19]	kinase still bound, per cent of control [20]	kinase still bound, per cent of control [22]	kinase still bound, per cent of control [26]	other results
Cc1cn(-c2cc(C(=O)Nc3ccc(C)c(NC(=O)c4ccno4)c3)cc(C(F)(F)F)c2)cn1	100%	100%	100%	100%	100%	100%	100%	0.3%	100%	100%	100%	100%	9%	100%	100%	100%	100%	100%	100%	100%	kinase still bound, per cent of control [9]: 100%; kinase still bound, per cent of control [11]: 100%; kinase still bound, per cent of control [21]: 100%; kinase still bound, per cent of control [23]: 100%; kinase still bound, per cent of control [24]: 100%; kinase still bound, per cent of control [25]: 100%; kinase still bound, per cent of control [27]: 100%; kinase still bound, per cent of control [28]: 100%; kinase still bound, per cent of control [29]: 100%; kinase still bound, per cent of control [30]: 100%; kinase still bound, per cent of control [31]: 100%; kinase still bound, per cent of control [32]: 100%; kinase still bound, per cent of control [33]: 100%; kinase still bound, per cent of control [34]: 100%
COc1cc(N2CCC(C(N)=O)CC2)ccc1Nc1nc(N)c(Cl)c(Nc2ccccc2S(=O)(=O)C(C)C)n1	100%	100%	100%	100%	100%	100%	100%	100%	100%	100%	100%	0.15%	100%	100%	100%	100%	100%	100%	0.05%	100%	kinase still bound, per cent of control [25]: 100%; kinase still bound, per cent of control [27]: 100%; kinase still bound, per cent of control [29]: 100%; kinase still bound, per cent of control [30]: 100%; kinase still bound, per cent of control [31]: 100%; kinase still bound, per cent of control [32]: 100%; kinase still bound, per cent of control [33]: 0.1%; kinase still bound, per cent of control [34]: 100%
COc1ccc(N(C(=O)Oc2cc(C(=O)Nc3cccc(C(F)(F)F)c3)ccc2C)c2ccnc(Nc3ccc(N4CCN(C)CC4)cc3)n2)c(OC)c1	2%	100%	8.3%	100%	100%	100%	100%	14%	100%	100%	100%	0.6%	0.9%	100%	1.9%	0.2%	100%	100%	100%	100%	kinase still bound, per cent of control [27]: 100%; kinase still bound, per cent of control [29]: 100%; kinase still bound, per cent of control [30]: 0%; kinase still bound, per cent of control [31]: 0.35%; kinase still bound, per cent of control [32]: 100%; kinase still bound, per cent of control [33]: 100%; kinase still bound, per cent of control [34]: 100%
COc1cc(C)c(Sc2cnc(NC(=O)c3ccc(CNC(C)C(C)C)cc3)s2)cc1C(=O)N1CCN(C(C)=O)CC1 (configuration not stated)	100%	100%	100%	100%	100%	100%	100%	100%	100%	100%	100%	100%	100%	100%	100%	25%	100%	100%	5.1%	100%	kinase still bound, per cent of control [25]: 100%; kinase still bound, per cent of control [27]: 100%; kinase still bound, per cent of control [29]: 100%; kinase still bound, per cent of control [30]: 100%; kinase still bound, per cent of control [31]: 100%; kinase still bound, per cent of control [32]: 100%; kinase still bound, per cent of control [33]: 100%; kinase still bound, per cent of control [34]: 100%

From the kinase profiling compilation of Christmann-Franck et al. (2016)
